These results are taken from PubChem BioAssay AID256 (DTP/NCI, 2004).

The test deals with CD2F1 mice, L1210 leukemia ip, survival T/C. The test is described as follows: NCI In Vivo Anticancer Drug Screen. Data for tumor model L1210 Leukemia (intraperitoneal) in CD2F1 (CDF1) mice. To be noted: endpoint: mean survival time, higher = longer survival. The gist of the method:
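Activity against a transplanted murine tumor was judged by comparing the compound group with a vehicle group. The outcome in the treated animals was divided by that in the controls.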

Setting [1] is: dose: 100.0 mg/kg/injection, schedule: Q04DX002 (ip), vehicle: saline with Tween-80.
[2] abbreviates: dose: 200.0 mg/kg/injection, schedule: Q04DX002 (ip), vehicle: saline with Tween-80.
Setting [3] is: dose: 400.0 mg/kg/injection, schedule: Q04DX002 (ip), vehicle: saline with Tween-80.
Where [4] appears, read: dose: 100.0 mg/kg/injection, schedule: Q01DX009 (ip), vehicle: saline with Tween-80.
Setting [5] is: dose: 100.0 mg/kg/injection, schedule: Q01DX009 (ip), vehicle: saline.
Setting [6] is: dose: 200.0 mg/kg/injection, schedule: Q01DX009 (ip), vehicle: saline.
Setting [7] is: dose: 100.0 mg/kg/injection, schedule: Q01DX001 (ip), vehicle: saline.
Setting [8] is: dose: 200.0 mg/kg/injection, schedule: Q01DX001 (ip), vehicle: saline.
Where [9] appears, read: dose: 400.0 mg/kg/injection, schedule: Q01DX001 (ip), vehicle: saline.

Each structure is given as a SMILES string. Where “and” joins values, the source holds several entries; their conditions need not be identical. Identical values can stand only once. Toxic doses and inconclusive results are not listed.

As for `Oc1c(Cl)cc(C(c2cc(Cl)c(O)c(Cl)c2)C(c2cc(Cl)c(O)c(Cl)c2)c2cc(Cl)c(O)c(Cl)c2)cc1Cl`, the T/C reads like this: (dose: 12.5 mg/kg/injection, schedule: Q01DX009 (ip), vehicle: Klucel (hydroxypropylcellulose) (HPC)) 95 % of control; (dose: 25.0 mg/kg/injection, schedule: Q01DX009 (ip), vehicle: Klucel (hydroxypropylcellulose) (HPC)) 97 % of control; (dose: 50.0 mg/kg/injection, schedule: Q01DX009 (ip), vehicle: Klucel (hydroxypropylcellulose) (HPC)) 103 % of control; (dose: 100.0 mg/kg/injection, schedule: Q01DX009 (ip), vehicle: Klucel (hydroxypropylcellulose) (HPC)) 106 % of control; (dose: 200.0 mg/kg/injection, schedule: Q01DX009 (ip), vehicle: Klucel (hydroxypropylcellulose) (HPC)) 115 % of control; (dose: 400.0 mg/kg/injection, schedule: Q01DX009 (ip), vehicle: Klucel (hydroxypropylcellulose) (HPC)) 96 % of control.

For the compound `N#[N+]c1c(O)ccc2ccccc12`, the T/C is 107 % of control under setting [1], 103 % of control under setting [2] and 100 % of control under setting [3].

Regarding `O=C1c2ccccc2C(=O)N1CCBr`, the T/C reads like this: (dose: 100.0 mg/kg/injection, schedule: Q01DX001 (ip), vehicle: saline with Tween-80) 102 % of control; (dose: 200.0 mg/kg/injection, schedule: Q01DX001 (ip), vehicle: saline with Tween-80) 109 % of control; (dose: 400.0 mg/kg/injection, schedule: Q01DX001 (ip), vehicle: saline with Tween-80) 111 % of control.

`CC1CC(C)(C)NC(CCC2NC(C)(C)CC(C)O2)O1` (stereo unspecified): the T/C under setting [4] is 92 % of control.

For the compound `CCC(=O)N(C)[C@@H](C)C(=O)O[C@H]1CC(=O)N(C)c2cc(cc(OC)c2Cl)C/C(C)=C/C=C[C@@H](OC)[C@@]2(O)C[C@H](OC(=O)N2)[C@@H](C)[C@@H]2O[C@@]12C`, the T/C was 110 % of control (dose: 1.3 micrograms/kg/injection, schedule: Q01DX009 (ip), vehicle: saline + alcohol); 119 % of control (dose: 2.5 micrograms/kg/injection, schedule: Q01DX009 (ip), vehicle: saline + alcohol); 109 % of control (dose: 2.5 micrograms/kg/injection, schedule: Q01DX009 (ip), vehicle: saline); 120 % of control (dose: 3.8 micrograms/kg/injection, schedule: Q01DX009 (ip), vehicle: saline + alcohol); 117 % of control and 111 % of control (dose: 5.0 micrograms/kg/injection, schedule: Q01DX009 (ip), vehicle: saline + alcohol); 111 % of control (dose: 5.0 micrograms/kg/injection, schedule: Q01DX009 (ip), vehicle: saline). Further, the T/C was 106 % of control (dose: 7.5 micrograms/kg/injection, schedule: Q01DX009 (ip), vehicle: saline + alcohol); 115 % of control (dose: 10.0 micrograms/kg/injection, schedule: Q01DX009 (ip), vehicle: saline + alcohol); 111 % of control (dose: 10.0 micrograms/kg/injection, schedule: Q01DX009 (ip), vehicle: saline); 112 % of control (dose: 15.0 micrograms/kg/injection, schedule: Q01DX009 (ip), vehicle: saline + alcohol); 111 % of control (dose: 20.0 micrograms/kg/injection, schedule: Q01DX009 (ip), vehicle: saline); 122 % of control (dose: 30.0 micrograms/kg/injection, schedule: Q01DX009 (ip), vehicle: saline + alcohol). Further, the T/C by setting is: (dose: 30.0 micrograms/kg/injection, schedule: Q01DX009 (ip), vehicle: saline) 117 % of control; (dose: 60.0 micrograms/kg/injection, schedule: Q01DX009 (ip), vehicle: saline + alcohol) 114 % of control.

For the compound `CCCOC(=O)c1cc([N+](=O)[O-])c(Sc2ncnc3nc[nH]c23)c([N+](=O)[O-])c1`, the T/C is 109 % of control (dose: 0.63 mg/kg/injection, schedule: Q01DX005 (ip), vehicle: other); 116 % of control (dose: 1.25 mg/kg/injection, schedule: Q01DX005 (ip), vehicle: other); 111 % of control (dose: 2.5 mg/kg/injection, schedule: Q01DX005 (ip), vehicle: other); 111 % of control (dose: 5.0 mg/kg/injection, schedule: Q01DX005 (ip), vehicle: other); 121 % of control (dose: 10.0 mg/kg/injection, schedule: Q01DX005 (ip), vehicle: other); 165 % of control (dose: 62.5 mg/kg/injection, schedule: Q01DX005 (ip), vehicle: other). The T/C (dose: 125.0 mg/kg/injection, schedule: Q01DX005 (ip), vehicle: other) is 101 % of control.

Consider `O=C(O)C12CCC(CC1)CC2`, for which the T/C runs as follows: (dose: 75.0 mg/kg/injection, schedule: Q01DX001 (ip), vehicle: other) 107 % of control; (dose: 150.0 mg/kg/injection, schedule: Q01DX001 (ip), vehicle: other) 104 % of control; (dose: 300.0 mg/kg/injection, schedule: Q01DX001 (ip), vehicle: other) 104 % of control.

With `O=C(O)C1(C(=O)O)CC2CC=CCC2C1` (stereo unspecified), the T/C reads like this: under setting [5], 98 % of control; under setting [6], 100 % of control; (dose: 400.0 mg/kg/injection, schedule: Q01DX009 (ip), vehicle: saline) 87 % of control.

As to `O=C1CCC(C(=O)Nc2ccc(Cl)cc2Cl)N1` (stereo unspecified), the T/C is 98 % of control (dose: 25.0 mg/kg/injection, schedule: Q04DX002 (ip), vehicle: saline with Tween-80); 98 % of control (dose: 50.0 mg/kg/injection, schedule: Q04DX002 (ip), vehicle: saline with Tween-80); 98 % of control under setting [1]; 118 % of control under setting [2]; 97 % of control under setting [3].

Consider `CCOC(=O)Nc1cc(NC(C)CCCN(CC)CC)c2ncc(-c3cc(OC)c(OC)c(OC)c3)nc2n1` (stereo unspecified) (tested in a mixture with another compound), for which the T/C by setting is: (dose: 50.0 mg/kg/injection, schedule: Q01DX009 (ip), vehicle: saline) 89 % of control; under setting [5], 89 % of control; under setting [6], 89 % of control.

Turning to `CC1OCOC(C)C1C` (stereo unspecified), the T/C is, setting by setting: (dose: 50.0 mg/kg/injection, schedule: Q01DX005 (ip), vehicle: saline) 108 % of control; (dose: 50.0 mg/kg/injection, schedule: Q01DX009 (ip), vehicle: saline with Tween-80) 91 % of control; (dose: 50.0 mg/kg/injection, schedule: Q04DX002 (ip), vehicle: saline + alcohol) 103 % of control; (dose: 100.0 mg/kg/injection, schedule: Q01DX005 (ip), vehicle: saline) 108 % of control; under setting [4], 91 % of control; (dose: 100.0 mg/kg/injection, schedule: Q04DX002 (ip), vehicle: saline + alcohol) 95 % of control. For the same compound, the T/C (dose: 200.0 mg/kg/injection, schedule: Q01DX005 (ip), vehicle: saline) is 108 % of control; the T/C (dose: 200.0 mg/kg/injection, schedule: Q01DX009 (ip), vehicle: saline with Tween-80) was 91 % of control; the T/C (dose: 200.0 mg/kg/injection, schedule: Q04DX002 (ip), vehicle: saline + alcohol) is 88 % of control; the T/C (dose: 400.0 mg/kg/injection, schedule: Q01DX005 (ip), vehicle: saline) was 102 % of control; the T/C (dose: 400.0 mg/kg/injection, schedule: Q01DX009 (ip), vehicle: saline with Tween-80) was 98 % of control; the T/C (dose: 400.0 mg/kg/injection, schedule: Q04DX002 (ip), vehicle: saline + alcohol) is 95 % of control.

With `O=C(O)c1ccc(C(=O)O)nc1`, the T/C is, setting by setting: under setting [7], 87 % of control; under setting [8], 95 % of control; under setting [9], 97 % of control.

Consider `O=C1CCCC(c2ccccc2)c2ccccc21` (stereo unspecified), for which the T/C runs as follows: under setting [7], 97 % of control; under setting [8], 97 % of control; under setting [9], 97 % of control.
